Experimental data: patent US12201632B2, “Levoketoconazole for treatment of congenital adrenal hyperplasia and primary aldosteronism” (Strongbridge Dublin Limited, priority 2018, dated 2025)

Experiments:
[1] = system: EAS associated adrenal hyperplasia no. 1 primary culture; assay: Steroid profile by LC/MS-MS in EAS associated adrenal hyperplasia no. 1; format: cell-based, human; settings: for 11-DOC absolute change vs ACTH stimulation with vehicle / 11-DOC percentage change vs ACTH stimulation with vehicle / 17-OHP absolute change vs ACTH stimulation with vehicle / 17-OHP percentage change vs ACTH stimulation with vehicle / Androstenedione absolute change vs ACTH stimulation with vehicle / Androstenedione percentage change vs ACTH stimulation with vehicle / Corticosterone absolute change vs ACTH stimulation with vehicle / Corticosterone percentage change vs ACTH stimulation with vehicle / Cortisol absolute change vs ACTH stimulation with vehicle / Cortisol percentage change vs ACTH stimulation with vehicle / DHEA absolute change vs ACTH stimulation with vehicle / DHEAS absolute change vs ACTH stimulation with vehicle / Prog absolute change vs ACTH stimulation with vehicle / Prog percentage change vs ACTH stimulation with vehicle / Testosterone absolute change vs ACTH stimulation with vehicle / Testosterone percentage change vs ACTH stimulation with vehicle: EAS associated adrenal hyperplasia no. 1, ACTH; for 11-DOC absolute change vs ACTH stimulation with vehicle / 11-DOC percentage change vs ACTH stimulation with vehicle / 17-OHP absolute change vs ACTH stimulation with vehicle / 17-OHP percentage change vs ACTH stimulation with vehicle / Androstenedione absolute change vs ACTH stimulation with vehicle / Androstenedione percentage change vs ACTH stimulation with vehicle / Corticosterone absolute change vs ACTH stimulation with vehicle / Corticosterone percentage change vs ACTH stimulation with vehicle / Cortisol absolute change vs ACTH stimulation with vehicle / Cortisol percentage change vs ACTH stimulation with vehicle / DHEA absolute change vs ACTH stimulation with vehicle / DHEAS absolute change vs ACTH stimulation with vehicle / Prog absolute change vs ACTH stimulation with vehicle / Prog percentage change vs ACTH stimulation with vehicle / Testosterone absolute change vs ACTH stimulation with vehicle / Testosterone percentage change vs ACTH stimulation with vehicle / 11-DOC absolute change vs control / 11-DOC percentage change vs control / 17-OHP absolute change vs control / 17-OHP percentage change vs control / Androstenedione absolute change vs control / Androstenedione percentage change vs control / Corticosterone absolute change vs control / Corticosterone percentage change vs control / Cortisol absolute change vs control / Cortisol percentage change vs control / DHEA absolute change vs control / DHEAS absolute change vs control / Prog absolute change vs control / Prog percentage change vs control / Testosterone absolute change vs control / Testosterone percentage change vs control: 3 days; for 11-DOC absolute change vs control / 11-DOC percentage change vs control / 17-OHP absolute change vs control / 17-OHP percentage change vs control / Androstenedione absolute change vs control / Androstenedione percentage change vs control / Corticosterone absolute change vs control / Corticosterone percentage change vs control / Cortisol absolute change vs control / Cortisol percentage change vs control / DHEA absolute change vs control / DHEAS absolute change vs control / Prog absolute change vs control / Prog percentage change vs control / Testosterone absolute change vs control / Testosterone percentage change vs control: EAS associated adrenal hyperplasia no. 1, Basal
Experimental: To obtain primary cultures, adrenal specimens (adrenocortical adenomas, adrenal hyperplasias and adrenocortical carcinomas) were collected after adrenalectomy at the department of Surgery, Erasmus University Medical Center, Rotterdam, the Netherlands, between April 2016 and May 2018. The study was conducted under guidelines that have been approved by the Medical Ethics Committee of the Erasmus Medical Center and informed consent was obtained from all patients. Immediately after surgery, specimens were minced into small pieces of 2-3 mm^3, washed in culture medium and centrifuged for 5 minutes at 600 g. The tissue was stored overnight in culture medium at 4° C., where after the tissue was centrifuged again and the supernatant was removed. Fragments were dissociated using 10-25 ml collagenase type 1 (2 mg/ml: Sigma-Aldrich), followed by incubation at 37° C. for up to two hours. Ficoll (GE healthcare) density gradient separation was used once or twice as required in order to separate contaminating red blood cells from the tumor cells. Cell viability and cell amount were counted by trypan blue exclusion. Dissociated cells were plated at a density of 10^5 cells per well. ACTH-secreting corticotroph pituitary adenoma tissue from patients with Cushing's disease (n=2) was available after transsphenoidal surgery. Single-cell suspensions of the pituitary adenoma tissues were prepared as previously described in detail.
Primary culture conditions for primary cultures were similar as described in the section ‘cell culture and compounds’, but with small adjustments: ACTH was used at a concentration of 85 pM (250 pg/mL), treatment was started 3-4 days after plating of the cells and cells were incubated for 3 days, and; for pituitary primary cultures, levoketoconazole and racemic ketoconazole were only tested at a concentration of 1 μM. Owing to a limited number of cells obtained from the specimens, not all experiments were carried out in every primary culture.
Cortisol concentrations were measured in the supernatant using a chemiluminescence immunoassay system (Immulite 2000XPi; Siemens DPC Inc., Los Angeles, Calif., USA). In addition, we carried out multi-steroid analysis by liquid chromatography/mass spectrometry (LC/MS-MS) to accurately quantify androstenedione, corticosterone, cortisol, 11-deoxycortisol, DHEA, DHEAS, progesterone, 17-hydroxyprogesterone, and testosterone. Concentrations that were tested on the LC/MS-MS were closest to 50% inhibition or maximal inhibition of cortisol as determined by the immunoassay. Steroids were quantified with respect to a calibration series, with internal standards. Steroids were quantified on a Xevo TQS LC-MS/MS (Waters Chromatography).
Statistical analysis was performed using Graphpad Prism 6.0 (Graphpad Software, San Diego, CA). Non-linear regression curve fitting program was used to calculate the half maximal inhibitory concentrations (IC50) on cortisol production. Effects of both compounds on the steroid profile were measured as absolute change compared to control and compared using the Student's t-test. When assessing differences between effects of both compounds, the percentage change was evaluated and compared in order to correct for differences in the vehicle treated control cells. Values of P<0.05 were considered statistically significant and data are presented as mean SEM.

[2] = cited from earlier work

SMILES: CC(=O)N1CCN(c2ccc(OC[C@@H]3CO[C@@](Cn4ccnc4)(c4ccc(Cl)cc4Cl)O3)cc2)CC1 (relative stereo) [levoketoconazole, 2S,4R cis-1-acetyl-4-[4-[[2-(2,4-dichlorophenyl)-2-(1H-imidazol-1-ylmethyl)-1,3-dioxolan-4-yl]methoxyl]phenyl]piperazine]
- 11-DOC absolute change vs ACTH stimulation with vehicle ([1]; 0.05 μM): did not change
- 11-DOC percentage change vs ACTH stimulation with vehicle ([1]; 0.05 μM): (+1.6%)
- 17-OHP absolute change vs ACTH stimulation with vehicle ([1]; 0.05 μM): +8.300 nmol/l
- 17-OHP percentage change vs ACTH stimulation with vehicle ([1]; 0.05 μM): +41%
- Androstenedione absolute change vs ACTH stimulation with vehicle ([1]; 0.05 μM): -9.600 nmol/L
- Androstenedione percentage change vs ACTH stimulation with vehicle ([1]; 0.05 μM): −50%
- Corticosterone absolute change vs ACTH stimulation with vehicle ([1]; 0.05 μM): +97.95 nmol/l
- Corticosterone percentage change vs ACTH stimulation with vehicle ([1]; 0.05 μM): +29%
- Cortisol absolute change vs ACTH stimulation with vehicle ([1]; 0.05 μM): -234.8 nmol/L
- Cortisol percentage change vs ACTH stimulation with vehicle ([1]; 0.05 μM): −37%
- DHEA absolute change vs ACTH stimulation with vehicle ([1]; 0.05 μM): <LLQ
- DHEAS absolute change vs ACTH stimulation with vehicle ([1]; 0.05 μM): <LLQ
- Prog absolute change vs ACTH stimulation with vehicle ([1]; 0.05 μM): +6.025 nmol/l
- Prog percentage change vs ACTH stimulation with vehicle ([1]; 0.05 μM): +167%
- Testosterone absolute change vs ACTH stimulation with vehicle ([1]; 0.05 μM): -0.3250 nmol/L
- Testosterone percentage change vs ACTH stimulation with vehicle ([1]; 0.05 μM): −45%
- 11-DOC absolute change vs ACTH stimulation with vehicle ([1]; 0.05 μM, listed as LK): -6.000 nmol/L
- 17-OHP absolute change vs ACTH stimulation with vehicle ([1]; 0.05 μM, listed as LK): +8.300 nmol/l
- 17-OHP percentage change vs ACTH stimulation with vehicle ([1]; 0.05 μM, listed as LK): (+41%)
- Androstenedione absolute change vs ACTH stimulation with vehicle ([1]; 0.05 μM, listed as LK): -9.600 nmol/L
- Androstenedione percentage change vs ACTH stimulation with vehicle ([1]; 0.05 μM, listed as LK): (−50%)
- Corticosterone absolute change vs ACTH stimulation with vehicle ([1]; 0.05 μM, listed as LK): 97.95 nmol/L
- Corticosterone percentage change vs ACTH stimulation with vehicle ([1]; 0.05 μM, listed as LK): (+29%)
- Cortisol absolute change vs ACTH stimulation with vehicle ([1]; 0.05 μM, listed as LK): -234.8 nmol/L
- Cortisol percentage change vs ACTH stimulation with vehicle ([1]; 0.05 μM, listed as LK): (−37%)
- Prog percentage change vs ACTH stimulation with vehicle ([1]; 0.05 μM, listed as LK): (+167%)
- Testosterone absolute change vs ACTH stimulation with vehicle ([1]; 0.05 μM, listed as LK): -0.3250 nmol/L
- Testosterone percentage change vs ACTH stimulation with vehicle ([1]; 0.05 μM, listed as LK): (−45%)
- 11-DOC absolute change vs ACTH stimulation with vehicle ([1]; 5 μM): -435.4 nmol/L
- 11-DOC percentage change vs ACTH stimulation with vehicle ([1]; 5 μM): (−99%)
- 17-OHP absolute change vs ACTH stimulation with vehicle ([1]; 5 μM): -31.55 nmol/L
- 17-OHP percentage change vs ACTH stimulation with vehicle ([1]; 5 μM): (−90%)
- Androstenedione absolute change vs ACTH stimulation with vehicle ([1]; 5 μM): -15.19 nmol/L
- Androstenedione percentage change vs ACTH stimulation with vehicle ([1]; 5 μM): (−98%)
- Corticosterone absolute change vs ACTH stimulation with vehicle ([1]; 5 μM): -373.7 nmol/L
- Corticosterone percentage change vs ACTH stimulation with vehicle ([1]; 5 μM): (−100%)
- Cortisol absolute change vs ACTH stimulation with vehicle ([1]; 5 μM): -640.2 nmol/L
- Cortisol percentage change vs ACTH stimulation with vehicle ([1]; 5 μM): (−100%)
- DHEA absolute change vs ACTH stimulation with vehicle ([1]; 5 μM): <LLQ
- DHEAS absolute change vs ACTH stimulation with vehicle ([1]; 5 μM): <LLQ
- Prog absolute change vs ACTH stimulation with vehicle ([1]; 5 μM): +37.66 nmol/l
- Prog percentage change vs ACTH stimulation with vehicle ([1]; 5 μM): (+1201%)
- Testosterone absolute change vs ACTH stimulation with vehicle ([1]; 5 μM): -0.5513 nmol/L
- Testosterone percentage change vs ACTH stimulation with vehicle ([1]; 5 μM): (−85%)
- 11-DOC absolute change vs control ([1]; 0.05 μM): -96.33 nmol/L
- 11-DOC percentage change vs control ([1]; 0.05 μM): (−37%)
- 17-OHP absolute change vs control ([1]; 0.05 μM): -0.4667 nmol/L
- 17-OHP percentage change vs control ([1]; 0.05 μM): (−4.6%)
- Androstenedione absolute change vs control ([1]; 0.05 μM): -6.508 nmol/L
- Androstenedione percentage change vs control ([1]; 0.05 μM): (−64%)
- Corticosterone absolute change vs control ([1]; 0.05 μM): -67.07 nmol/L
- Corticosterone percentage change vs control ([1]; 0.05 μM): (−33%)
- Cortisol absolute change vs control ([1]; 0.05 μM): -178.4 nmol/L
- Cortisol percentage change vs control ([1]; 0.05 μM): (−64%)
- DHEA absolute change vs control ([1]; 0.05 μM): <LLQ
- DHEAS absolute change vs control ([1]; 0.05 μM): <LLQ
- Prog absolute change vs control ([1]; 0.05 μM): +5.108 nmol/l
- Prog percentage change vs control ([1]; 0.05 μM): (+123%)
- Testosterone absolute change vs control ([1]; 0.05 μM): -0.2583 nmol/L
- Testosterone percentage change vs control ([1]; 0.05 μM): (−48%)
- 11-DOC absolute change vs control ([1]; 5 μM): -280.5 nmol/L
- 11-DOC percentage change vs control ([1]; 5 μM): (−99%)
- 17-OHP absolute change vs control ([1]; 5 μM): -14.33 nmol/L
- 17-OHP percentage change vs control ([1]; 5 μM): (−93%)
- Androstenedione absolute change vs control ([1]; 5 μM): -7.978 nmol/L
- Androstenedione percentage change vs control ([1]; 5 μM): (−95%)
- Corticosterone absolute change vs control ([1]; 5 μM): -193.8 nmol/L
- Corticosterone percentage change vs control ([1]; 5 μM): (−99%)
- Cortisol absolute change vs control ([1]; 5 μM): -230.3 nmol/L
- Cortisol percentage change vs control ([1]; 5 μM): (−99%)
- DHEA absolute change vs control ([1]; 5 μM): <LLQ
- DHEAS absolute change vs control ([1]; 5 μM): <LLQ
- Prog absolute change vs control ([1]; 5 μM): +13.36 nmol/l
- Prog percentage change vs control ([1]; 5 μM): (+363%)
- Testosterone absolute change vs control ([1]; 5 μM): -0.3838 nmol/L
- Testosterone percentage change vs control ([1]; 5 μM): (−90%)
- total change of steroids ([1]; EAS associated adrenal hyperplasia no. 1, basal condition): -343.9 nmol/L
- total sum of change of the steroids: decrease ([1]; EAS associated adrenal hyperplasia no. 1, under ACTH stimulation): 138.5 nmol/L
- propensity to increase 11-deoxycorticosterone secretion compared to racemic ketoconazole ([1]; human adrenal cells in the presence of ACTH drive): less propensity to increase 11-deoxycorticosterone secretion
- accumulation in a subject's body over repeated dosing [2]: significantly less accumulation
